Each structure is given as a SMILES string. Read-outs that look alike come from different tables or passages of the source.

This assay concerns the target c-Myc template DNA (c-myc quadruplex). Description: Quadruplex binding / stop assay (Taq polymerase arrest, capillary electrophoresis).
[1] abbreviates: read-out: Stop Data c-Myc μM, concentration at which 50% of the DNA was arrested (arrested:full-length 1:1).
Where [2] appears, read: read-out: S DATA, Table 1D, stop assay data.

On to `CN(C)CCN(Cc1ccccc1)C(=O)c1cn2c3c(c(N4CCC(N)C4)c(F)cc3c1=O)Oc1cc3ccccc3cc1-2` (stereo not drawn) [compound 194], for which, under setting [1], the IC50 was 1.75 µM. For the molecule `NC1CCN(c2c(F)cc3c(=O)c(C(=O)NCC(O)c4ccccc4)cn4c3c2Oc2cc3ccccc3cc2-4)C1` (stereo not drawn) [compound 1703], the IC50 under setting [2] is over 15 µM.

As for `CN1CCCC1CCNC(=O)c1cn2c3c(c(NCCCCCO)c(F)cc3c1=O)Oc1cc3ccccc3cc1-2` (stereo not drawn) [compound 1658], the IC50 under setting [2] came out at 1.75 µM. As for `CN1CCCC1CCNC(=O)c1cn2c3c(c(F)c(F)cc3c1=O)Oc1cc3ccccc3cc1-2` (stereo not drawn) [compound 101], under setting [1], the IC50 was 2.25 µM. Turning to `CN1CCN(CCCNc2c(F)cc3c(=O)c(C(=O)NCCCCNC(=N)N)cn4c3c2Oc2ccccc2-4)CC1` [compound 1631], the IC50 under setting [2] was over 15 µM.

With `CN(C)CCCNc1c(F)cc2c(=O)c(C(=O)NCCC3CCCN3C)cn3c2c1Oc1cc2ccccc2cc1-3` (stereo not drawn) [compound 1500], under setting [2], the IC50 amounted to 0.75 µM. Turning to `Cn1cccc1CN1CCN(c2c(F)cc3c(=O)c(C(=O)NCCN4CCCC4)cn4c3c2Oc2cc(Cl)ccc2-4)CC1` [compound 1830], the IC50 under setting [2] worked out at 8.6 µM. As for `CN1CCCC1CCNC(=O)c1cn2c3c(c(NC4CCCNC4)c(F)cc3c1=O)Oc1cc3ccccc3cc1-2` (stereo not drawn) [compound 433], the IC50 under setting [1] was determined as 0.75 µM. Take `CN1CCC(NC(=O)c2cn3c4c(c(N5CCC(N)C5)c(F)cc4c2=O)Oc2cc4ccccc4cc2-3)CC1` (stereo not drawn) [compound 1717]: the IC50 under setting [2] came to 0.75 µM.

Regarding `CN1CCN(CCCNc2ccc3c(=O)c(C(=O)NCCCN4CCOCC4)cn4c3c2Oc2cc3ccccc3cc2-4)CC1` [compound 1554], the IC50 under setting [2] turned out to be 1.75 µM. Take `CN1CCCC1CCNC(=O)c1cn2c3c(c(NCCN4CCOCC4)c(F)cc3c1=O)Oc1cc3ccccc3cc1-2` (stereo not drawn) [compound 57]: the IC50 under setting [1] worked out at 2.5 µM.

For the molecule `CN1CCCC1CCNC(=O)c1cn2c3c(c(NC4CC(C)(C)NC(C)(C)C4)c(F)cc3c1=O)Oc1cc3ccccc3cc1-2` (stereo not drawn) [compound 325], the IC50 under setting [1] stood at 1 µM.

As to `CN(C)CCCCNc1ccc2c(=O)c(C(=O)NCCCN3CCOCC3)cn3c2c1Oc1cc2ccccc2cc1-3` [compound 1542], the IC50 under setting [2] is over 15 µM. Regarding `CN(C)CCCCNc1c(F)cc2c(=O)c(C(=O)NCCN3CCCC3)cn3c4cc5oc6cc([N+](=O)[O-])ccc6[nH]c5cc4oc1c23` [compound 586], the IC50 under setting [1] is 0.18 µM. Turning to `CN(C)CCCCNC(=O)c1cn2c3c(c(NCCCN4CCN(C)CC4)ccc3c1=O)Oc1cc3ccccc3cc1-2` [compound 456], under setting [1], the IC50 was 0.75 µM. For the molecule `O=C(CCN1CCCCC1)N[C@@H]1CCN(c2c(F)cc3c(=O)c(C(=O)NCCN4CCOCC4)cn4c3c2Oc2cc3c(cc2-4)oc2ccccc23)C1` [compound 319], the IC50 under setting [1] came out at 1 µM.

As to `O=C(c1cn2c3c(c(NC4CCNC4)c(F)cc3c1=O)Oc1cc3ccccc3cc1-2)N1CCOCC1` (stereo not drawn) [compound 116], under setting [1], the IC50 was 1.75 µM.

In the case of `O=C(c1cn2c3c(c(NCCN4CCCC4)c(F)cc3c1=O)Oc1ccccc1-2)N1CCC(N2CCCC2)CC1` [compound 1601], the IC50 under setting [2] is over 15 µM. `CN1CCCC1CCNC(=O)c1cn2c3c(c(NC[C@@H]4CCCO4)c(F)cc3c1=O)Oc1cc3ccccc3cc1-2` (stereo partly drawn) [compound 1737]: the IC50 under setting [2] is 4 µM. For `O=C(NCCN1CCCC1)c1cn2c3c(c(NCCN4CCOCC4)c(F)cc3c1=O)Oc1cc3c(cc1-2)oc1ccccc13` [compound 148], the IC50 under setting [1] is 1.75 µM.

In the case of `CN1CCCC1CCNC(=O)c1cn2c3c(c(S(=O)(=O)CCc4cnccn4)c(F)cc3c1=O)Oc1cc3ccccc3cc1-2` (stereo not drawn) [compound 1768], the IC50 under setting [2] stood at 0.92 µM. In the case of `CN(C)CCCCNC(=O)c1cn2c3c(c(NCCCN4CCOCC4)c(F)cc3c1=O)Oc1cc3c(cc1-2)oc1ccccc13` [compound 145], the IC50 under setting [1] was 1.75 µM. With `O=C(NCCN1CCCC1)c1cn2c3c(c(NCCCN4CCOCC4)ccc3c1=O)Oc1cc3ccccc3cc1-2` [compound 272], under setting [1], the IC50 came to 1.75 µM. Regarding `CN1CCCC1CCNC(=O)c1cn2c3c(c(NCCCCO)c(F)cc3c1=O)Oc1cc3ccccc3cc1-2` (stereo not drawn) [compound 284], under setting [1], the IC50 was found to be 1.75 µM. For the molecule `CCOCCCNC(=O)c1cn2c3c(c(N4CCC(N)C4)c(F)cc3c1=O)Oc1cc3ccccc3cc1-2` (stereo not drawn) [compound 1697], the IC50 under setting [2] was over 15 µM.

For `CN1CCCC1CCNC(=O)c1cn2c3c(c(NCCN4CCCC4)ccc3c1=O)Oc1cc3ccccc3cc1-2` (stereo not drawn) [compound 446], the IC50 under setting [1] was 0.75 µM. `NC1CCN(C(=O)c2cn3c4cc5c(=O)c6ccccc6c(=O)c5cc4oc4c(N5CCC(N)C5)c(F)cc(c2=O)c43)C1` (stereo not drawn) [compound 499]: the IC50 under setting [1] worked out at 0.4 µM.

`CN1CCCC1CCNC(=O)c1cn2c3c(c(F)c(F)cc3c1=O)Oc1cc3ccccc3cc1-2` (stereo not drawn) [compound 1738]: under setting [2], the IC50 worked out at 2.25 µM. In the case of `O=C(O)c1cn2c3cc4oc5cc([N+](=O)[O-])ccc5[nH]c4cc3oc3c(NCCCN4CCOCC4)c(F)cc(c1=O)c32` [compound 18], the IC50 under setting [1] turned out to be 0.75 µM. `CN1CCCC1CCNC(=O)c1cn2c3c(c(NCc4ccccc4N4CCCCC4)c(F)cc3c1=O)Oc1cc3ccccc3cc1-2` (stereo not drawn) [compound 1509]: the IC50 under setting [2] was over 15 µM.

On to `CN1CCCC1CCNC(=O)c1cn2c3c(c(NCCN4CCOCC4)c(F)cc3c1=O)Oc1c-2ccc2ccccc12` (stereo not drawn) [compound 131], for which the IC50 under setting [1] is 1.75 µM. Regarding `CN1CCCC1CCNC(=O)c1cn2c3c(c(N4CCN(c5ncccn5)CC4)c(F)cc3c1=O)Oc1cc(Cl)ccc1-2` (stereo not drawn) [compound 1810], the IC50 under setting [2] was 7.8 µM. Take `N=C(N)NCCNC(=O)c1cn2c3c(c(N4CC5CCCNC5C4)c(F)cc3c1=O)Oc1cc3ccccc3cc1-2` (stereo not drawn) [compound 471]: under setting [1], the IC50 was 0.64 µM. With `CN1CCN(CCCNC(=O)c2cn3c4cc5c(=O)c6ccccc6c(=O)c5cc4oc4c(N5CCC(N)C5)c(F)cc(c2=O)c43)CC1` (stereo not drawn) [compound 91], the IC50 under setting [1] is 2.5 µM. Turning to `CC(C)(C)OC(=O)N[C@@H]1CCN(c2c(F)cc3c(=O)c(C(=O)NCCCN)cn4c3c2Oc2cc3ccccc3cc2-4)C1` [compound 428], under setting [1], the IC50 worked out at 0.75 µM. Consider `CN1CCCC1CCNC(=O)c1cn2c3cc4c(=O)c5ccccc5c(=O)c4cc3oc3c(NCCC4CCCN4C)c(F)cc(c1=O)c32` (stereo not drawn) [compound 346], for which, under setting [1], the IC50 turned out to be 0.9 µM. As to `CN1CCC[C@@H]1CCNC(=O)c1cn2c3c(c(N4CCC(c5cnccn5)C4)c(F)cc3c1=O)Oc1cc3ccccc3cc1-2` (stereo partly drawn) [compound 468], under setting [1], the IC50 was found to be 0.74 µM.

As for `O=C(NCCN1CCCC1)c1cn2c3c(c(NCCN4CCOCC4)c(F)cc3c1=O)Oc1ccccc1-2` [compound 1609], the IC50 under setting [2] was over 15 µM. For `C[C@H](O)CNc1c(F)cc2c(=O)c(C(=O)NCCC3CCCN3C)cn3c2c1Oc1cc2ccccc2cc1-3` (stereo partly drawn) [compound 294], the IC50 under setting [1] turned out to be 1.75 µM. As for `O=C(Nc1ccncc1)c1cn2c3c(c(NCCCN4CCOCC4)c(F)cc3c1=O)Oc1cc3c(cc1-2)oc1ccccc13` [compound 315], under setting [1], the IC50 was 1 µM.

Regarding `N[C@@H]1CCN(c2c(F)cc3c(=O)c(C(=O)N4CCOCC4)cn4c3c2Oc2c-4ccc3ccccc23)C1` [compound 79], under setting [1], the IC50 was 2.5 µM. Turning to `COc1ccccc1CCNC(=O)c1cn2c3c(c(N4CCC(N)C4)c(F)cc3c1=O)Oc1cc3ccccc3cc1-2` (stereo not drawn) [compound 1711], the IC50 under setting [2] is over 15 µM. Consider `CCOC(=O)N1CCC(Nc2c(F)cc3c(=O)c(C(=O)NCCC4CCCN4C)cn4c3c2Oc2cc3ccccc3cc2-4)CC1` (stereo not drawn) [compound 256], for which the IC50 under setting [1] was 1.75 µM. Consider `COCC(=O)N1CCN(c2c(F)cc3c(=O)c(C(=O)NCCN4CCCC4)cn4c3c2Oc2cc(Cl)ccc2-4)CC1` [compound 1825], for which, under setting [2], the IC50 was found to be 10 µM. `NC1CCN(c2c(F)cc3c(=O)c(C(=O)NCc4ccccc4N4CCCCC4)cn4c3c2Oc2cc3ccccc3cc2-4)C1` (stereo not drawn) [compound 247]: the IC50 under setting [1] is 1.75 µM. `CN(C)c1cccc(CNc2c(F)cc3c(=O)c(C(=O)NCCC4CCCN4C)cn4c3c2Oc2cc3ccccc3cc2-4)c1` (stereo not drawn) [compound 464]: under setting [1], the IC50 was determined as 0.75 µM. As to `COc1cccc(CCNc2c(F)cc3c(=O)c(C(=O)NCCC4CCCN4C)cn4c3c2Oc2cc3ccccc3cc2-4)c1` (stereo not drawn) [compound 1669], the IC50 under setting [2] is 1.75 µM. `O=C(NCCCn1ccnc1)c1cn2c3c(c(NCCCN4CCOCC4)c(F)cc3c1=O)Oc1cc3c(cc1-2)-c1ccccc1C3` [compound 314]: under setting [1], the IC50 turned out to be 1 µM.

For the molecule `CN1CCCC1CCNc1c(F)cc2c(=O)c(C(=O)N3CC[C@@H](NC(=O)OC(C)(C)C)C3)cn3c2c1Oc1cc2ccccc2cc1-3` (stereo partly drawn) [compound 68], the IC50 under setting [1] turned out to be 2.5 µM. On the same count and under the same terms, the result for `O=C(CCN1CCOCC1)N[C@@H]1CCN(c2c(F)cc3c(=O)c(C(=O)NCCN4CCCC4)cn4c3c2Oc2cc3c(cc2-4)oc2ccccc23)C1` [compound 404] reads 0.75 µM; that for `CN1CCCC1CCNC(=O)c1cn2c3c(c(Nc4ccccc4N4CCOCC4)c(F)cc3c1=O)Oc1cc3ccccc3cc1-2` (stereo not drawn) [compound 264], 1.75 µM.

On to `CN1CCCC1CCNC(=O)c1cn2c3c(c(NCCCN4CCOCC4)ccc3c1=O)Oc1cc3ccccc3cc1-2` (stereo not drawn) [compound 273], for which the IC50 under setting [1] came to 1.75 µM. The same measure, in the same setting: the result for `CN(C)CCCCNc1c(F)cc2c(=O)c(C(=O)NCCCN3CCN(C)CC3)cn3c4cc5c(=O)c6ccccc6c(=O)c5cc4oc1c23` [compound 171] reads 1.75 µM.

With `CN1CCCC1CCNC(=O)c1cn2c3c(c(N4CCC(N)CC4)c(F)cc3c1=O)Oc1cc3ccccc3cc1-2` (stereo not drawn) [compound 1616], under setting [2], the IC50 amounted to 1.75 µM. Take `CN1CCN(CCCNC(=O)c2cn3c4c(c(NCCCN5CCN(C)CC5)c(F)cc4c2=O)Oc2cc4ccccc4cc2-3)CC1` [compound 342]: under setting [1], the IC50 came out at 0.9 µM. `CN(C)CCCCNc1c(F)cc2c(=O)c(C(=O)O)cn3c2c1Oc1cc2ccccc2cc1-3` [compound 8]: under setting [1], the IC50 was 1.75 µM. For the molecule `CN(C)CC(C)(C)CNC(=O)c1cn2c3c(c(NCCN4CCCC4)c(F)cc3c1=O)Oc1ccccc1-2` [compound 1600], under setting [2], the IC50 was over 15 µM.

Take `CN1CCCC1CCNC(=O)c1cn2c3c(c(NCCCCCO)c(F)cc3c1=O)Oc1cc3ccccc3cc1-2` (stereo not drawn) [compound 1469]: the IC50 under setting [1] is 1.75 µM. The same measure, in the same setting: the value for `O=C(NCCCN1CCOCC1)c1cn2c3c(c(NCCN4CCCC4)c(F)cc3c1=O)Oc1c-2ccc2ccccc12` [compound 137] was 1.75 µM. In the case of `CN(C)CCCCNC(=O)c1cn2c3c(c(NCCCN4CCOCC4)ccc3c1=O)Oc1cc3ccccc3cc1-2` [compound 1532], under setting [2], the IC50 was over 15 µM.

Values taken from US7507727B2, “Substituted quinobenzoxazine analogs and methods of using thereof” (Cylene Pharmaceuticals, Inc., priority 2003, dated 2009).
